Data from PubChem BioAssay AID1645848.
In brackets after ≈: the same amount, converted by molar mass.

Settings: buffer; pH 7.4; 6.0 h; 150.0 µM

Row | Structure (SMILES) | solubility kinetic [µg/mL]
1 | CN1CC=C(c2nc(Nc3ccc(F)c(F)c3)c3ccccc3n2)CC1 | 33.8 (≈ 96 µM)
2 | O=C(Cc1ccc(Cl)c(Cl)c1)Nc1ccc(S(=O)(=O)Nc2nncs2)cc1 | > 65
3 | CCC1=Nc2cc(C(=O)NCCCOC)ccc2Sc2ccc(Br)cc21 | 6.63 (≈ 15.3 µM)
4 | CCOC(=O)C1=C(C)NC(=O)CC1C(=O)Nc1cc(Cl)cc(Cl)c1 (stereo not given) | 22.4 (≈ 60.2 µM)
5 | Nc1ncnc(N2CCc3ccccc32)c1[N+](=O)[O-] | < 1
6 | O=c1cc(N2CCOCC2)oc2c1ccc1ccccc12 | 16.7 (≈ 59.5 µM)
7 | FC(F)(F)c1cccc(Sc2nc(-c3ccccc3)nnc2C(F)(F)F)c1 | < 1
8 | O=c1c2ccccc2nc2n1CCC2 | > 27
9 | C[C@@]1(O)[C@H](O)[C@@H](CO)O[C@H]1n1ccc(N)nc1=O | > 38
10 | CC(C)C[C@H]1C(=O)N2CCC[C@H]2[C@]2(O)O[C@](NC(=O)[C@@H]3C=C4c5cccc6[nH]c(Br)c(c56)C[C@H]4N(C)C3)(C(C)C)C(=O)N12 | < 1
11 | N#Cc1ccccc1S(=O)(=O)Nc1cnccc1C(=O)Nc1nc(-c2ccccc2)cs1 | 50.9 (≈ 110 µM)
12 | COc1cc(/C=C(\C#N)c2nc3ccccc3[nH]2)ccc1OCc1ccc(F)cc1 | < 1
13 | CCN(CC)S(=O)(=O)c1ccc2oc(C(=O)Nc3ccc(Br)cc3F)c(C)c2c1 | < 1
14 | CCOC(=O)c1nc(Nc2ccc(N3CCC(C)CC3)cc2)c2ccccc2n1 | 2.18 (≈ 5.59 µM)
15 | C=CCc1ccc(O)c(-c2ccc(O)c(CC=C)c2)c1 | > 100
16 | CSc1ccc(/C=C/c2nc3ccccc3n2S(=O)(=O)c2ccc(Br)cc2)cc1 | 2.73 (≈ 5.63 µM)
17 | O=C(c1ccc2ncccc2c1)N1CCc2c(nc3cc[nH]n3c2=O)C1 | 11.2 (≈ 32.3 µM)
18 | Cc1ccc(-c2nc(NCC(=O)Nc3cccc(C(=O)O)c3)c3ccccc3n2)cc1 | > 61
19 | COc1cc(NS(=O)(=O)c2ccc(C)cc2)c(C(=O)Nc2nc(-c3ccccc3)cs2)cc1OC | < 1
20 | CCC(CC)c1cc([C@H]2CN3CC[C@H]2C[C@@H]3CNC(=O)Cc2cccs2)nc(-c2ccncc2)n1 | > 72
21 | COc1ncccc1-c1cc2c(ccn2CC2CCN([S+](C)(=O)[O-])CC2)c(N2CCOCC2)n1 | 50.2 (≈ 103 µM)
22 | Clc1ccc(C2(c3ccc(-c4cn[nH]c4)cc3)CCNCC2)cc1 | > 50
23 | O=C(Nc1cncc(Cc2ccccc2)c1)c1ccc(-c2cccc([N+](=O)[O-])c2)o1 | < 1
24 | O=C1Nc2ccc(Cl)cc2/C1=C\c1cc(Cl)c(O)c(Cl)c1 | 19 (≈ 55.8 µM)
25 | CCOc1cc(-c2nccc3cc(OC)c(OC)cc23)cc(OCC)c1OCC | 13.8 (≈ 34.6 µM)

Row | Structure (SMILES) | solubility kinetic [µg/mL]
26 | COc1ccc(S(=O)(=O)N(CC(=O)Nc2ccc(C)cc2)c2ccc(C)cc2)cc1OC | < 1
27 | Nc1ncnc2c1c(-c1cnc3[nH]ccc3c1)nn2C1CCCC1 | > 47
28 | CN1CCCN(C(c2ccccc2)c2ccc(Cl)cc2)CC1 (stereo not given) | 36.9 (≈ 117 µM)
29 | CCc1ccc(NC(=O)[C@H](Cc2c[nH]c3ccccc23)NC(=O)[C@@H]2Cc3ccccc3CN2)cc1 | 3.49 (≈ 7.48 µM)
30 | COCCNS(=O)(=O)c1cc(-c2nn3c(C)nnc3c3ccccc23)ccc1C | 29 (≈ 70.4 µM)
31 | Cc1noc(C)c1-c1ccc2ncnc(NCc3ccc4[nH]ccc4c3)c2c1 | < 1
32 | COc1ccc(C2c3[nH]c4ccc(OC)cc4c3CCN2C(=O)Nc2ccccc2)cc1 (stereo not given) | 1.06 (≈ 2.48 µM)
33 | COc1ccc(NC(=O)c2[nH]c(C)c(C(C)=O)c2C)cc1 | 35.3 (≈ 123 µM)
34 | NC(=O)C1CCN(c2nc(-c3ccccc3-c3ccccc3)cs2)CC1 | 30.6 (≈ 84.3 µM)
35 | COc1ccc(-c2cc(-c3cccc(NC(C)=O)c3)cn3cncc23)cn1 | 6.93 (≈ 19.3 µM)
36 | OC(CCN1CCCCC1)c1ccc(-c2ccccc2)cc1 (stereo not given) | > 44
37 | Cc1ccc(S(=O)(=O)Nc2cnccc2C(=O)Nc2nc(-c3cccc(F)c3)cs2)cc1 | 0.167 (≈ 0.356 µM)
38 | Cc1ccc2oc(NC3=NC(c4ccccc4Cl)C4=C(CCCC4=O)N3)nc2c1 (stereo not given) | < 1
39 | CCCCCn1c(=O)[nH]c2cc(C(=O)NCCCN3CCC(C)CC3)ccc2c1=O | > 61
40 | Cc1cc(N=Nc2ccc(S(=O)(=O)Nc3ccccn3)cc2)c(N)cc1O | 3.69 (≈ 9.63 µM)
41 | CC1=C[C@@H](CNCc2cccnc2)[C@H](C(C)C)C[C@H]1Cc1nnc(-c2ccc([N+](=O)[O-])cc2)o1 | > 68
42 | Nc1c(C(=O)Nc2ccc(Cl)c(C(F)(F)F)c2)sc2nc3c(cc12)N1CCC3CC1 | < 1
43 | COc1ccc(C(=O)Nc2nc(-c3ccccc3)cs2)c(NS(=O)(=O)c2ccc(C)cc2)c1 | < 1
44 | COC(=O)CSc1nc(-c2ccccc2)cc(-c2ccco2)c1C#N | < 1
45 | C[C@]12N[C@H](Cc3ccccc31)c1ccccc12 | > 33
46 | Brc1ccc(-c2csc(N3CCNCC3)n2)cc1 | 6.59 (≈ 20.3 µM)
47 | O=C1Nc2ccccc2/C1=C\c1ccc(O)c(F)c1 | 9.29 (≈ 36.4 µM)
48 | Cn1c2cc(S(C)=O)sc2c2cnn(Cc3cccc(N)c3)c(=O)c21 (stereo not given) | > 55
49 | Cc1ccc(-n2ncc3c(NCCCN(C)C)ncnc32)cc1Cl | > 51
50 | CN(C)c1cccc(-c2cnc(N3CCC(c4ncc[nH]4)CC3)s2)c1 | 32.7 (≈ 92.5 µM)
